Tests used:
APPL1/MyD88 interaction = test: Co-immunoprecipitation of AdipoR1, APPL1 and MyD88 in Raw264.7 cells; type: cell-based; conditions: AdipoAI (5 μM) and LPS-treated cells compared to control cells
Protocol: FIG. 6 Involvement of APPL1/MyD88 interaction in the anti-inflammatory effects of AdipoAI in macrophages. (a) RAW 264.7 cells were transfected with siRNA targeting MyD88, c-Maf or scrambled control siRNA for 24 h, followed by stimulation with LPS for 6 h. Transfection efficiency of siRNA and mRNA expression levels of proinflammatory cytokines were measured by qPCR and normalized with GAPDH mRNA levels. Data were expressed as the mean±SEM at five biological independent experiments. One-way ANOVA test for multiple-group comparisons, * vs. LPS+Scrambled group, *P<0.05, significant differences between each indicated group. ns, not significant. (b) Raw264.7 cells were transfected with siRNA targeting MyD88 or scrambled control siRNA for 24 h, followed by stimulation with LPS for 30 min for measurement of related proteins. Representative images are shown along with β-actin as an internal loading control and densitometric analysis. Densitometry values-MyD88: 1.00, 0.24, 1.20, 0.33; pIRAK4: 1.00, 0.00; p-P38: 1.00, 0.11. […] Proteins immunoprecipitated with the anti-MyD88 antibody were analyzed by immunoblotting with antibodies for MyD88, APPL1, and AdipoR1. […]
The RAW 264.7 macrophages were seeded at a density of 6×10^6 cells per 100 mm dish. […] The immunoprecipitates were washed with lysis buffer and further analyzed by polyacrylamide gel electrophoresis and Western blot analyses. […]

[1] = system: AdipoR1/2 mRNA expression; test: qRT-PCR of AdipoR1/2 mRNA in Raw264.7 cells; type: cell-based; conditions: 24 h
Protocol: FIG. 10 Raw264.7 cells were treated with different doses of AdipoAI for 24 h to measure AdipoR1/2 mRNA expression by qRT-PCR. Data were expressed as the mean±SEM at five biological independent experiments. One-way ANOVA test for multiple-group comparisons, * vs. control group. *P<0.05, significant differences between each indicated group.
Total RNA of cells was extracted using Quick-RNA Miniprep Kit (ZYMO Research, Irvine, CA, USA) and total RNA from mouse tissues was prepared with TriZol reagent (Life Technologies) according to the manufacturer's instructions followed by qRT-PCR assays as described previously (L. Zhang et al., 2014). 1 μg of total RNA was used for reverse transcription using the M-MLV Reverse Transcriptase (Thermo Scientific, Waltham, MA, USA) according to the manufacturer's protocol using PowerUp SYBR Green Master Mix (Thermo Scientific) on a Bio-Rad iQ5 thermal cycler (Bio-Rad Laboratories, Hercules, CA, USA). Differences in expression were evaluated by the comparative cycle threshold method using GAPDH or β-actin as a control. The primer sequences used for the qRT-PCR experiments are listed in supplemental Table 1.

Protocol for RAW 264.7 cells: RAW 264.7 cells were treated with receptor activator of nuclear factor KB ligand (RANKL) (100 ng/ml) for 2 days with or without AdipoRon (20 μM) or AdipoAI (5 μM) for another 2 days. […] (C) The CCK-8 analysis of RAW 264.7 cells treated with 20 μM AdipoRon or 5 μM AdipoAI for 48 h. (D) The CCK-8 analysis of RAW 264.7 cells' proliferation at different doses of APR and AdipoAI. Cells were treated with 100 ng/ml RANKL for 2 days with or without AdipoRon (5, 20 μM) or AdipoAI (5, 20 μM) every 2 days for 4 days. […] Data are shown as mean±SD., compared with the vehicle-treated group, *P<0.05. **P<0.01. ***P<0.001.
RAW 264.7 cells (2×10^3 cells/well) were seeded in 96-well plates and treated with or without AdipoRon or AdipoAI for 48 hours in a humidified chamber at 37° C. in 5% CO2 and air. Cell viability was determined with the Cell Counting Kit-8 (CCK-8 kit, Dojindo, Santa Clara, CA, USA) following the manufacturer's recommendations. Briefly, CCK-8 solution (10 μL) was added to each well and cells were incubated in dark for 3 hours. Cell viability was determined by measuring the absorbance at 450 nm.

## COc1ccc(CN2CCC(NC(=O)COc3ccc(C(=O)c4ccc(Cl)cc4)cc3)CC2)cc1 [Compound 3]
RAW 264.7 cells
  number of RAW 264.7 cells (CCK-8) at 20 μM: reduced cell number
RAW 264.7 cells; mouse, 48 h, 5 μM
  number of RAW 264.7 cells (CCK-8) at 5 μM: did not reduce the number of RAW 264.7 cells
APPL1/MyD88 interaction
  interaction of APPL1 with MyD88 (Co-IP): the interaction of APPL1 with MyD88 was increased
[1]
  mRNA levels of AdipoRs: increased the mRNA levels of AdipoRs
